In patent US20090118332A1, “Therapeutic Agents - 551” (AstraZeneca AB, priority 2006, published 2009):

Target: T1, human Fatty Acid Synthase (Homo sapiens, UniProt P49327)
T1 construct: made in house
Assay: Human FAS enzyme assay (decrease in NADPH fluorescence)
Format: biochemical
Conditions: for IC50, inhibition of human Fatty Acid Synthase: FAS enzyme assay, IC50 from fitted sigmoid curves; for inhibition at 100 µM: % inhibition at a concentration of 100 μmolar
Procedure: Human and Rat FAS Enzyme Assay.
Fatty acid synthase is an enzyme complex that harbours seven enzymatic activities catalysing the reductive synthesis of long chain fatty acids from acetyl CoA and malonyl CoA to palmitate. When acetyl CoA and malonyl CoA are forming palmitate NADPH is consumed forming NADP. Since NADPH is fluorescent but not NADP the reaction can be measured by analysing the decrease in fluorescence.
Compounds were added to a black 384 well plate (Matrix) in a volume of 5 μl consisting of 20% DMSO and 80% Tris buffer pH 7.5, at a top concentration of 1 mM. NADPH, 30 μl of 166.6 μM, formulated in assay buffer (0.1M Tris ph7.5, 0.1 mM EDTA, 1 mM glutathione, 0.05% BSA), was then added to all of the wells of the plate. Fatty acid synthase Human or rat enzyme (0.4 μg, produced in house), dissolved in 20 mM Tris/HCl pH 7.5, 5 mM BOG, 1 mM TCEP, 10% glycerol, 1 mM EDTA, 150 mM NaCl, was then added to the plate in a volume of 10 μl. Enzyme was added to all but the last two columns of the plate, to which, 10 μl of assay buffer was added (0.1M Tris ph7.5, 0.1 mM EDTA, 1 mM glutathione, 0.05% BSA) to provide a no enzyme assay control. Following a 15-minute incubation period, at room temperature, the plates were read on an Envision plate reader using 340 nm excitation and 460 nm emission filters. This served as a time zero background read. Substrates (an equal mix of both malonyl and acetyl CoA) were then added to the plates in a total volume of 5 μl. The concentrations of malonyl and acetyl CoA in the mixture were 500 μM and 150 μM respectively. Both were prepared as 10 mM stock solutions in distilled water and were subsequently diluted to working concentrations in assay buffer. Plates were then incubated for a further 60 minutes, at room temperature, before being read again on the Envision reader using the same parameters as previously used. The data was analysed by subtracting the background time zero data from that generated following the final 60 minute incubate and the percent inhibition compared to the maximum and minimum assay controls was determined. Sigmoid curves were fitted using Origin 7.5 Client software and IC50 values were determined.

T1 sequence (P49327 whole entry): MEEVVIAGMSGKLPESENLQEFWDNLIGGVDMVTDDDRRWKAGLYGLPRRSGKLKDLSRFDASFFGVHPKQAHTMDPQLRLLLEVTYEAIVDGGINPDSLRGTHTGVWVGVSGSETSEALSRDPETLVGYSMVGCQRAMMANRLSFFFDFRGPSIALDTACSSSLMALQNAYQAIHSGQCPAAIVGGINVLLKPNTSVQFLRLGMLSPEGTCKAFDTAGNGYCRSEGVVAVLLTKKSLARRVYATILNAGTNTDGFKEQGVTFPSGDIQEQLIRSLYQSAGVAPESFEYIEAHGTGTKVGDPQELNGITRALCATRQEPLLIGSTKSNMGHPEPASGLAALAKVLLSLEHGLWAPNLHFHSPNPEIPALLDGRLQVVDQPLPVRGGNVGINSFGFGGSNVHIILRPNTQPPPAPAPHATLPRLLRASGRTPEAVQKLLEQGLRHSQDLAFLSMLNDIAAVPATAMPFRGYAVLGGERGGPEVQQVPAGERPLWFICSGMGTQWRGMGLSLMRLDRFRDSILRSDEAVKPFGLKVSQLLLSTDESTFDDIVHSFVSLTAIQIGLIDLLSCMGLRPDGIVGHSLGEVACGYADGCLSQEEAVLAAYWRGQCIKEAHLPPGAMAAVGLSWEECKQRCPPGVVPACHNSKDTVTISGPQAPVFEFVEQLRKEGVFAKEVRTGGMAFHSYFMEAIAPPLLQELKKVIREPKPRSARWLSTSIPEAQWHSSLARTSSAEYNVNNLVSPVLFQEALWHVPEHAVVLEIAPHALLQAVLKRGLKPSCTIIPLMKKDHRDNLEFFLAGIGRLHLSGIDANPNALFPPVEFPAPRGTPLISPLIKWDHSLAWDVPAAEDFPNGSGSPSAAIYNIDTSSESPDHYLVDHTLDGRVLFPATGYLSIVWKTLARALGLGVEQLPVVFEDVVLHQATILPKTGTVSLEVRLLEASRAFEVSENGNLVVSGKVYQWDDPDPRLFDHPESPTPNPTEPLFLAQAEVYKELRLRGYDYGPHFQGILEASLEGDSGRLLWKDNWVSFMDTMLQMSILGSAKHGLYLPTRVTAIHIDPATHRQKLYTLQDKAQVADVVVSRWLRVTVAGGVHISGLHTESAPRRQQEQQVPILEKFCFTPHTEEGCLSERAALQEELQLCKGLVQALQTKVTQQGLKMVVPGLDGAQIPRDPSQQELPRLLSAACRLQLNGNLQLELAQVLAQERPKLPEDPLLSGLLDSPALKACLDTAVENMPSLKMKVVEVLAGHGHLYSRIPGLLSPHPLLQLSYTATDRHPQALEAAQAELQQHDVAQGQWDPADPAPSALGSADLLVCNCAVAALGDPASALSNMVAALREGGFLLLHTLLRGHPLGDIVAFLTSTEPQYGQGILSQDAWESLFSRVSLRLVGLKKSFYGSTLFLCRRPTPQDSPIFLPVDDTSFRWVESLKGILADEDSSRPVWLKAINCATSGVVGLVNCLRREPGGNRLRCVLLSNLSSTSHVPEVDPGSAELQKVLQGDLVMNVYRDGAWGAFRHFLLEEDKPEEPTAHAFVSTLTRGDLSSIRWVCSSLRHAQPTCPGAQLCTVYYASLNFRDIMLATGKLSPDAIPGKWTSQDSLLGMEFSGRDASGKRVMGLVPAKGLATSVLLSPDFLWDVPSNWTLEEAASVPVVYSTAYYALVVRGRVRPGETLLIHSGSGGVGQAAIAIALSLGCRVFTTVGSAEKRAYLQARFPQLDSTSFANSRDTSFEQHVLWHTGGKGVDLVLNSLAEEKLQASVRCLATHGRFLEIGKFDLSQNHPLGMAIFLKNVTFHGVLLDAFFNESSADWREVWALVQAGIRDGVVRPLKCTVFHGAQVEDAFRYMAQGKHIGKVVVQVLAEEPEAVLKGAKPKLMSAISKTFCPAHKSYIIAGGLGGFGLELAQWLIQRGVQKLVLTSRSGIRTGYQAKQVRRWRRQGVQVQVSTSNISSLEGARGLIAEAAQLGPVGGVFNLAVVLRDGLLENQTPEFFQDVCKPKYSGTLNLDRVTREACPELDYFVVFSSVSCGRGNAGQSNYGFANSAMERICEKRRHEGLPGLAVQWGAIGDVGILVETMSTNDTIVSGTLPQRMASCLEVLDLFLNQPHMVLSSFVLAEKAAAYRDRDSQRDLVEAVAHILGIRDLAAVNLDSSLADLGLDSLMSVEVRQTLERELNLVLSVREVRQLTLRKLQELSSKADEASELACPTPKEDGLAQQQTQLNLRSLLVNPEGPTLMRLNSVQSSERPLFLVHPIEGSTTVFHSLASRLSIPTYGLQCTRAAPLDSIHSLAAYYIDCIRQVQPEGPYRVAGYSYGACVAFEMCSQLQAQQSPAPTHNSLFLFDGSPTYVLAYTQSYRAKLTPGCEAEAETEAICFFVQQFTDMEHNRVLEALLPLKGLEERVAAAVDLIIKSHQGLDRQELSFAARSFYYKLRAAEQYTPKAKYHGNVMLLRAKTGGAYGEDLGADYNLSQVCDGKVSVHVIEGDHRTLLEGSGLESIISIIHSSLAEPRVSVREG

| SMILES | IC50, inhibition of human Fatty Acid Synthase | inhibition at 100 µM [%] |
| --- | --- | --- |
| CC(C)NC(=O)Nc1ccc([S+](C)[O-])c(C(=O)N2CCC(c3ccc(C#N)cc3)CC2)c1 (stereo not shown) [3-[3-[4-(4-cyanophenyl)piperidine-1-carbonyl]-4-methylsulfinylphenyl]-1-propan-2-ylurea] | do not have IC50s in the range of about 0.001 μM to about 30 μM |  |
| CC(C)NC(=O)Nc1ccc(S(C)(=O)=O)c(C(=O)N2CCC(c3ccc(C#N)cc3)CC2)c1 [3-[3-[4-(4-cyanophenyl)piperidine-1-carbonyl]-4-methylsulfonylphenyl]-1-propan-2-ylurea] | do not have IC50s in the range of about 0.001 μM to about 30 μM |  |
| Cc1ccc(C(=O)N2CCC(c3ccc(C#N)cc3)CC2)cc1NC(=O)N(C)C [3-[5-[4-(4-cyanophenyl)piperidine-1-carbonyl]-2-methylphenyl]-1,1-dimethylurea] | do not have IC50s in the range of about 0.001 μM to about 30 μM |  |
| Cc1ccc(C(=O)N2CCC(c3ccc(C#N)cc3)CC2)cc1NC(=O)N(C)C(C)(C)C#N [3-[5-[4-(4-cyanophenyl)piperidine-1-carbonyl]-2-methylphenyl]-1-(2-cyanopropan-2-yl)-1-methylurea] | do not have IC50s in the range of about 0.001 μM to about 30 μM |  |
| COCCN(C)C(=O)Nc1cc(C(=O)N2CCC(c3ccc(C#N)cc3)CC2)ccc1C [3-[5-[4-(4-cyanophenyl)piperidine-1-carbonyl]-2-methylphenyl]-1-(2-methoxyethyl)-1-methylurea] | do not have IC50s in the range of about 0.001 μM to about 30 μM |  |
| Cc1ccc(C(=O)N2CCC(c3ccc(C#N)cc3)CC2)cc1NC(=O)N(C1CC1)C1CCS(=O)(=O)C1 (stereo not shown) [3-[5-[4-(4-cyanophenyl)piperidine-1-carbonyl]-2-methylphenyl]-1-cyclopropyl-1-(1,1-dioxothiolan-3-yl)urea] | do not have IC50s in the range of about 0.001 μM to about 30 μM |  |
| Cc1ccc(C(=O)N2CCC(c3ccc(C#N)cc3)CC2)cc1NC(=O)N(C)CC1CCCO1 (stereo not shown) [3-[5-[4-(4-cyanophenyl)piperidine-1-carbonyl]-2-methylphenyl]-1-methyl-1-(oxolan-2-ylmethyl)urea] | do not have IC50s in the range of about 0.001 μM to about 30 μM |  |
| COc1ccc(NC(=O)NCc2ccccc2)cc1C(=O)N1CCC(c2ccc(C#N)cc2)CC1 [3-benzyl-1-[3-[4-(4-cyanophenyl)piperidine-1-carbonyl]-4-methoxyphenyl]urea] | do not have IC50s in the range of about 0.001 μM to about 30 μM |  |
| CS(=O)(=O)c1ccc(C(=O)N2CCC(c3ccc(C#N)cc3)CC2)cc1NC(=O)NCc1ccccc1 [3-benzyl-1-[5-[4-(4-cyanophenyl)piperidine-1-carbonyl]-2-methylsulfonylphenyl]urea] | do not have IC50s in the range of about 0.001 μM to about 30 μM |  |
| CCOC(=O)[C@H](CO)NC(=O)Nc1cc(C(=O)N2CCC(c3ccc(C#N)cc3)CC2)ccc1C [Ethyl (2S)-2-[[5-[4-(4-cyanophenyl)piperidine-1-carbonyl]-2-methylphenyl]carbamoylamino]-3-hydroxypropanoate] | do not have IC50s in the range of about 0.001 μM to about 30 μM |  |
| CCCCNC(=O)Nc1cc(C(=O)N2CCC(c3ccc(C#N)cc3)CC2)ccc1C [Example 1, 1-butyl-3-[5-[4-(4-cyanophenyl)piperidine-1-carbonyl]-2-methyl-phenyl]urea] |  | 95.6 |
| Cc1ccc(C(=O)N2CCC(c3ccc(C#N)cc3)CC2)cc1NC(=O)N1CCOCC1 [Example 2, N-[5-[4-(4-cyanophenyl)piperidine-1-carbonyl]-2-methyl-phenyl]morpholine-4-carboxamide] |  | 79.7 |
| Cc1ccc(C(=O)N2CCC(c3ccc(C#N)cc3)CC2)cc1NC(=O)NC(C)C [Example 3, 3-[5-[4-(4-cyanophenyl)piperidine-1-carbonyl]-2-methyl-phenyl]-1-propan-2-yl-urea] |  | 95.6 |
| CC(C)NC(=O)Nc1cc(C(=O)N2CCC(c3ccc(C#N)cc3)CC2)ccc1OC(F)(F)F [Example 4, 3-[5-[4-(4-cyanophenyl)piperidine-1-carbonyl]-2-(trifluoromethoxy)phenyl]-1-propan-2-yl-urea] |  | 86.1 |
| N#Cc1ccc(C2CCN(C(=O)c3ccc(OC(F)(F)F)c(NC(=O)NCc4ccccc4)c3)CC2)cc1 [Example 5, 3-benzyl-1-[5-[4-(4-cyanophenyl)piperidine-1-carbonyl]-2-(trifluoromethoxy)phenyl]urea] |  | 78.8 |
| COc1ccc(C(=O)N2CCC(c3ccc(C#N)cc3)CC2)cc1NC(=O)NC(C)C [Example 6, 1-[5-[4-(4-cyanophenyl)piperidine-1-carbonyl]-2-methoxy-phenyl]-3-propan-2-yl-urea] |  | 79.6 |

| SMILES | IC50, inhibition of human Fatty Acid Synthase | inhibition at 100 µM [%] |
| --- | --- | --- |
| Cc1ccc(NC(=O)NCc2ccccc2)cc1C(=O)N1CCC(c2ccc(C#N)cc2)CC1 [Example 7, 3-benzyl-1-[3-[4-(4-cyanophenyl)piperidine-1-carbonyl]-4-methyl-phenyl]urea] |  | 79.1 |
| N#Cc1ccc(C2CCN(C(=O)c3ccc(F)c(NC(=O)NCc4ccccc4)c3)CC2)cc1 [Example 8, 3-benzyl-1-[5-[4-(4-cyanophenyl)piperidine-1-carbonyl]-2-fluoro-phenyl]urea] |  | 82.6 |
| COc1ccc(C(=O)N2CCC(c3ccc(C#N)cc3)CC2)cc1NC(=O)NCc1ccccc1 [Example 9, 3-benzyl-1-[5-[4-(4-cyanophenyl)piperidine-1-carbonyl]-2-methoxy-phenyl]urea] |  | 70.4 |
| Cc1ccc(C(=O)N2CCC(c3ccc(C#N)cc3)CC2)cc1NC(=O)N1CCCC1 [Example 10, N-[5-[4-(4-cyanophenyl)piperidine-1-carbonyl]-2-methyl-phenyl]pyrrolidine-1-carboxamide] |  | 83.5 |
| CC(C)NC(=O)Nc1cc(C(=O)N2CCC(c3ccc(C#N)cc3)CC2)ccc1F [Example 11, 3-[5-[4-(4-cyanophenyl)piperidine-1-carbonyl]-2-fluoro-phenyl]-1-propan-2-yl-urea] |  | 68.4 |
| Cc1cc(C)c(C(=O)N2CCC(c3ccc(C#N)cc3)CC2)cc1NC(=O)NCc1ccccc1 [Example 12, 3-benzyl-1-[5-[4-(4-cyanophenyl)piperidine-1-carbonyl]-2,4-dimethyl-phenyl]urea] |  | 84.6 |
| Cc1cc(C)c(C(=O)N2CCC(c3ccc(C#N)cc3)CC2)cc1NC(=O)NC(C)C [Example 13, 3-[5-[4-(4-cyanophenyl)piperidine-1-carbonyl]-2,4-dimethyl-phenyl]-1-propan-2-yl-urea] |  | 84.8 |
| N#Cc1ccc(C2CCN(C(=O)c3cccc(NC(=O)NCc4ccccc4)c3)CC2)cc1 [Example 14, 1-benzyl-3-[3-[4-(4-cyanophenyl)piperidine-1-carbonyl]phenyl]urea] |  | 90.1 |
| Cc1ccc(C(=O)N2CCC(c3ccc(C#N)cc3)CC2)cc1NC(=O)NC1CCCC1 [Example 15, 1-[5-[4-(4-cyanophenyl)piperidine-1-carbonyl]-2-methyl-phenyl]-3-cyclopentyl-urea] |  | 91.3 |
| Cc1ccc(C(=O)N2CCC(c3ccc(C#N)cc3)CC2)cc1NC(=O)NCCc1ccccc1 [Example 16, 1-[5-[4-(4-cyanophenyl)piperidine-1-carbonyl]-2-methyl-phenyl]-3-phenethyl-urea] |  | 98.3 |
| Cc1ccc(C(=O)N2CCC(c3ccc(C#N)cc3)CC2)cc1NC(=O)NCC1CCOCC1 [Example 17, 1-[5-[4-(4-cyanophenyl)piperidine-1-carbonyl]-2-methyl-phenyl]-3-(oxan-4-ylmethyl)urea] |  | 90.1 |
| CNC(=O)Nc1ccc(C)c(C(=O)N2CCC(c3ccc(C#N)cc3)CC2)c1 [Example 18, 3-[3-[4-(4-cyanophenyl)piperidine-1-carbonyl]-4-methyl-phenyl]-1-methyl-urea] |  | 75.9 |
| CCNC(=O)Nc1ccc(C)c(C(=O)N2CCC(c3ccc(C#N)cc3)CC2)c1 [Example 19, 3-[3-[4-(4-cyanophenyl)piperidine-1-carbonyl]-4-methyl-phenyl]-1-ethyl-urea] |  | 79.9 |
| CCCCNC(=O)Nc1ccc(C)c(C(=O)N2CCC(c3ccc(C#N)cc3)CC2)c1 [Example 20, 1-butyl-3-[3-[4-(4-cyanophenyl)piperidine-1-carbonyl]-4-methyl-phenyl]urea] |  | 79.2 |
| Cc1ccc(NC(=O)NC2CCCC2)cc1C(=O)N1CCC(c2ccc(C#N)cc2)CC1 [Example 21, 1-[3-[4-(4-cyanophenyl)piperidine-1-carbonyl]-4-methyl-phenyl]-3-cyclopentyl-urea] |  | 78.8 |
